Measured values reported in patent US10322111B2, “Chemokine receptor binding heterocyclic compounds with enhanced efficacy” (Genzyme Corporation, priority 2001, dated 2019).
Where two headings read alike, the source gives them in different places.

System: CFU-GM, BFU-E and CFU-GEMM progenitor cells
Settings: 80 μg/kg s.c.; for % CHG, BFU-E, methylcellulose culture / % CHG, CFU-GEMM, methylcellulose culture / % CHG, CFU-GM, methylcellulose culture / mean fold change compared to T 0, BFU-E, methylcellulose culture, MEAN / mean fold change compared to T 0, CFU-GEMM, methylcellulose culture, MEAN / mean fold change compared to T 0, CFU-GM, methylcellulose culture, MEAN: all five donors

SMILES: c1cc(CN2CCCNCCNCCCNCC2)ccc1CN1CCCNCCNCCCNCC1 [AMD3100, 1,1′-[1,4-phenylene-bis(methylene)]-bis-1,4,8,11-tetraazacyclotetradecane]
- fold change from T=0, progenitors CFU-GM, methylcellulose culture (P3, T = 24 h after injection): 1.43 fold
- Absolute # of Progenitors per ML, BFU-E (P4, T = 1 h after injection): 672 per ML
- Absolute # of Progenitors per ML, CFU-GEMM (P4, T = 1 h after injection): 199 per ML
- Absolute # of Progenitors per ML, CFU-GM (P4, T = 1 h after injection): 947 per ML
- fold change from T=0, progenitors BFU-E, methylcellulose culture (P4, T = 1 h after injection): 1.46 fold
- fold change from T=0, progenitors CFU-GEMM, methylcellulose culture (P4, T = 1 h after injection): 1.96 fold
- fold change from T=0, progenitors CFU-GM, methylcellulose culture (P4, T = 1 h after injection): 6.87 fold
- Absolute # of Progenitors per ML, BFU-E (P4, T = 3 h after injection): 1195 per ML
- Absolute # of Progenitors per ML, CFU-GEMM (P4, T = 3 h after injection): 519 per ML
- Absolute # of Progenitors per ML, CFU-GM (P4, T = 3 h after injection): 2857 per ML
- fold change from T=0, progenitors BFU-E, methylcellulose culture (P4, T = 3 h after injection): 2.60 fold
- fold change from T=0, progenitors CFU-GEMM, methylcellulose culture (P4, T = 3 h after injection): 5.14 fold
- fold change from T=0, progenitors CFU-GM, methylcellulose culture (P4, T = 3 h after injection): 20.72 fold
- Absolute # of Progenitors per ML, BFU-E (P4, T = 6 h after injection): 1533 per ML
- Absolute # of Progenitors per ML, CFU-GEMM (P4, T = 6 h after injection): 920 per ML
- Absolute # of Progenitors per ML, CFU-GM (P4, T = 6 h after injection): 3936 per ML
- fold change from T=0, progenitors BFU-E, methylcellulose culture (P4, T = 6 h after injection): 3.34 fold
- fold change from T=0, progenitors CFU-GEMM, methylcellulose culture (P4, T = 6 h after injection): 9.10 fold
- fold change from T=0, progenitors CFU-GM, methylcellulose culture (P4, T = 6 h after injection): 28.54 fold
- Absolute # of Progenitors per ML, BFU-E (P4, T = 9 h after injection): 1348 per ML
- Absolute # of Progenitors per ML, CFU-GEMM (P4, T = 9 h after injection): 457 per ML
- Absolute # of Progenitors per ML, CFU-GM (P4, T = 9 h after injection): 1942 per ML
- fold change from T=0, progenitors BFU-E, methylcellulose culture (P4, T = 9 h after injection): 2.93 fold
- fold change from T=0, progenitors CFU-GEMM, methylcellulose culture (P4, T = 9 h after injection): 4.52 fold
- fold change from T=0, progenitors CFU-GM, methylcellulose culture (P4, T = 9 h after injection): 14.08 fold
- Absolute # of Progenitors per ML, BFU-E (P4, T = 24 h after injection): 362 per ML
- Absolute # of Progenitors per ML, CFU-GEMM (P4, T = 24 h after injection): 99 per ML
- Absolute # of Progenitors per ML, CFU-GM (P4, T = 24 h after injection): 208 per ML
- fold change from T=0, progenitors BFU-E, methylcellulose culture (P4, T = 24 h after injection): 0.79 fold
- fold change from T=0, progenitors CFU-GEMM, methylcellulose culture (P4, T = 24 h after injection): 0.98 fold
- fold change from T=0, progenitors CFU-GM, methylcellulose culture (P4, T = 24 h after injection): 1.51 fold
- Absolute # of Progenitors per ML, BFU-E (P5, T = 1 h after injection): 730 per ML
- Absolute # of Progenitors per ML, CFU-GEMM (P5, T = 1 h after injection): 169 per ML
- Absolute # of Progenitors per ML, CFU-GM (P5, T = 1 h after injection): 481 per ML
- fold change from T=0, progenitors BFU-E, methylcellulose culture (P5, T = 1 h after injection): 2.13 fold
- fold change from T=0, progenitors CFU-GEMM, methylcellulose culture (P5, T = 1 h after injection): 3.07 fold
- fold change from T=0, progenitors CFU-GM, methylcellulose culture (P5, T = 1 h after injection): 2.84 fold
- Absolute # of Progenitors per ML, BFU-E (P5, T = 3 h after injection): 1288 per ML
- Absolute # of Progenitors per ML, CFU-GEMM (P5, T = 3 h after injection): 244 per ML
- Absolute # of Progenitors per ML, CFU-GM (P5, T = 3 h after injection): 1423 per ML
- fold change from T=0, progenitors BFU-E, methylcellulose culture (P5, T = 3 h after injection): 3.75 fold
- fold change from T=0, progenitors CFU-GM, methylcellulose culture (P5, T = 3 h after injection): 8.40 fold
- Absolute # of Progenitors per ML, BFU-E (P5, T = 6 h after injection): 3208 per ML
- Absolute # of Progenitors per ML, CFU-GEMM (P5, T = 6 h after injection): 987 per ML
- Absolute # of Progenitors per ML, CFU-GM (P5, T = 6 h after injection): 3454 per ML
- fold change from T=0, progenitors BFU-E, methylcellulose culture (P5, T = 6 h after injection): 9.35 fold
- fold change from T=0, progenitors CFU-GEMM, methylcellulose culture (P5, T = 6 h after injection): 17.92 fold
- fold change from T=0, progenitors CFU-GM, methylcellulose culture (P5, T = 6 h after injection): 20.39 fold
- Absolute # of Progenitors per ML, BFU-E (P5, T = 9 h after injection): 1731 per ML
- Absolute # of Progenitors per ML, CFU-GEMM (P5, T = 9 h after injection): 526 per ML
- Absolute # of Progenitors per ML, CFU-GM (P5, T = 9 h after injection): 1710 per ML
- fold change from T=0, progenitors BFU-E, methylcellulose culture (P5, T = 9 h after injection): 5.05 fold
- fold change from T=0, progenitors CFU-GEMM, methylcellulose culture (P5, T = 9 h after injection): 9.55 fold
- fold change from T=0, progenitors CFU-GM, methylcellulose culture (P5, T = 9 h after injection): 10.09 fold
- Absolute # of Progenitors per ML, BFU-E (P5, T = 24 h after injection): 495 per ML
- Absolute # of Progenitors per ML, CFU-GEMM (P5, T = 24 h after injection): 124 per ML
- Absolute # of Progenitors per ML, CFU-GM (P5, T = 24 h after injection): 310 per ML
- fold change from T=0, progenitors BFU-E, methylcellulose culture (P5, T = 24 h after injection): 1.44 fold
- fold change from T=0, progenitors CFU-GEMM, methylcellulose culture (P5, T = 24 h after injection): 2.25 fold
- fold change from T=0, progenitors CFU-GM, methylcellulose culture (P5, T = 24 h after injection): 1.83 fold
- % CHG, BFU-E, methylcellulose culture (T = 1 h after injection): 98.9%
- % CHG, CFU-GEMM, methylcellulose culture (T = 1 h after injection): 131.8%
- % CHG, CFU-GM, methylcellulose culture (T = 1 h after injection): 376.7%
- mean fold change compared to T 0, BFU-E, methylcellulose culture, MEAN (T = 1 h after injection): 1.99 fold
- mean fold change compared to T 0, CFU-GEMM, methylcellulose culture, MEAN (T = 1 h after injection): 2.32 fold
- mean fold change compared to T 0, CFU-GM, methylcellulose culture, MEAN (T = 1 h after injection): 4.77 fold
- % CHG, BFU-E, methylcellulose culture (T = 3 h after injection): 221.3%
- % CHG, CFU-GEMM, methylcellulose culture (T = 3 h after injection): 332.5%
- % CHG, CFU-GM, methylcellulose culture (T = 3 h after injection): 1266.5%
- mean fold change compared to T 0, BFU-E, methylcellulose culture, MEAN (T = 3 h after injection): 3.21 fold
- mean fold change compared to T 0, CFU-GEMM, methylcellulose culture, MEAN (T = 3 h after injection): 4.33 fold
- mean fold change compared to T 0, CFU-GM, methylcellulose culture, MEAN (T = 3 h after injection): 13.66 fold
- % CHG, BFU-E, methylcellulose culture (T = 6 h after injection): 500.5%
- % CHG, CFU-GEMM, methylcellulose culture (T = 6 h after injection): 907.2%
- % CHG, CFU-GM, methylcellulose culture (T = 6 h after injection): 2070.6%
- mean fold change compared to T 0, BFU-E, methylcellulose culture, MEAN (T = 6 h after injection): 6.01 fold
- mean fold change compared to T 0, CFU-GEMM, methylcellulose culture, MEAN (T = 6 h after injection): 10.07 fold
- mean fold change compared to T 0, CFU-GM, methylcellulose culture, MEAN (T = 6 h after injection): 21.71 fold
- % CHG, BFU-E, methylcellulose culture (T = 9 h after injection): 334.4%
- % CHG, CFU-GEMM, methylcellulose culture (T = 9 h after injection): 425.4%
- % CHG, CFU-GM, methylcellulose culture (T = 9 h after injection): 947.3%
- mean fold change compared to T 0, BFU-E, methylcellulose culture, MEAN (T = 9 h after injection): 4.34 fold
- mean fold change compared to T 0, CFU-GEMM, methylcellulose culture, MEAN (T = 9 h after injection): 5.25 fold
- mean fold change compared to T 0, CFU-GM, methylcellulose culture, MEAN (T = 9 h after injection): 10.47 fold
- % CHG, BFU-E, methylcellulose culture (T = 24 h after injection): 26.3%
- % CHG, CFU-GEMM, methylcellulose culture (T = 24 h after injection): 53.2%
- % CHG, CFU-GM, methylcellulose culture (T = 24 h after injection): 55.5%
- mean fold change compared to T 0, BFU-E, methylcellulose culture, MEAN (T = 24 h after injection): 1.26 fold
- mean fold change compared to T 0, CFU-GEMM, methylcellulose culture, MEAN (T = 24 h after injection): 1.53 fold
- mean fold change compared to T 0, CFU-GM, methylcellulose culture, MEAN (T = 24 h after injection): 1.56 fold
